Drawing on patent publication US20240307382A1, “MODULATORS OF THE INTEGRATED STRESS PATHWAY” (Calico Life Sciences LLC, priority 2017, published 2024), this text covers EC50 for 28 compounds.

The subject of the experiment is HEK293T cells carrying the ATF4 luciferase reporter. Put plainly: ATF4-Luc assay (ATF4 luciferase reporter, tunicamycin-treated cells). The format is cell-based. The conditions noted are these: Homo sapiens, HEK-293T, 1 μg/mL tunicamycin, 7 hours. The procedure, abridged: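 A stable HEK293T reporter line was made by placing the full-length human ATF4 5′-UTR ahead of a firefly luciferase sequence without its start methionine, delivered by retroviral transduction and puromycin selection. Cells were seeded at 30,000 per well in polylysine-coated 384-well plates, exposed next day to 1 μg/mL tunicamycin plus compound for 7 hours, and luminescence was read with One Glo.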
Usually EC50 stands for the concentration needed to bring the measured effect to its halfway point. For the compound `O=C(CO)Nc1cc(F)c(F)cc1C(=O)NC12CC(NC(=O)COc3ccc(Cl)c(F)c3)(C1)C2` [Compound 1059, N-{3-[2-(4-chloro-3-fluorophenoxy)acetamido]bicyclo[1.1.1]pentan-1-yl}-4,5-difluoro-2-(2-hydroxyacetamido)benzamide], the EC50 is 50 to 250 nM.
In the case of `O=C(COc1ccc(Cl)c(F)c1)NC12CC(NC(=O)c3cc(F)c(F)cc3NCCO)(C1)C2` [Compound 1060, N-{3-[2-(4-chloro-3-fluorophenoxy)acetamido]bicyclo[1.1.1]pentan-1-yl}-4,5-difluoro-2-[(2-hydroxyethyl)amino]benzamide] it was 250 to 1000 nM.
The value for `COCC(=O)Nc1cc(F)c(F)cc1C(=O)NC12CC(NC(=O)COc3ccc(Cl)c(F)c3)(C1)C2` [Compound 1061, N-{3-[2-(4-chloro-3-fluorophenoxy)acetamido]bicyclo[1.1.1]pentan-1-yl}-4,5-difluoro-2-(2-methoxyacetamido)benzamide] was 250 to 1000 nM.
The value for `Cc1nc(C(=O)NC23CCC(NC(=O)COc4ccc(Cl)c(F)c4)(CC2)[C@H](O)C3)n[nH]1` [Compound 1062, N-{(3R)-4-[2-(4-chloro-3-fluorophenoxy)acetamido]-3-hydroxybicyclo[2.2.2]octan-1-yl}-5-methyl-1H-1,2,4-triazole-3-carboxamide] was 250 to 1000 nM; that for `Cc1csc(C(=O)NC23CCC(NC(=O)COc4ccc(F)c(Cl)c4)(CC2)[C@@H](O)C3)n1` [Compound 1063, N-{(3S)-4-[2-(3-chloro-4-fluorophenoxy)acetamido]-3-hydroxybicyclo[2.2.2]octan-1-yl}-4-methyl-1,3-thiazole-2-carboxamide] was 250 to 1000 nM.
With `Cc1csc(C(=O)NC23CCC(NC(=O)COc4ccc(Cl)cc4)(CC2)[C@@H](O)C3)n1` [Compound 1064, N-{(3S)-4-[2-(4-chlorophenoxy)acetamido]-3-hydroxybicyclo[2.2.2]octan-1-yl}-4-methyl-1,3-thiazole-2-carboxamide], the EC50 was in the range of 250 to 1000 nM.
In the case of `Cc1csc(C(=O)NC23CCC(NC(=O)COc4ccc(Cl)c(F)c4)(CC2)[C@@H](O)C3)n1` [Compound 1065, N-{(3S)-4-[2-(4-chloro-3-fluorophenoxy)acetamido]-3-hydroxybicyclo[2.2.2]octan-1-yl}-4-methyl-1,3-thiazole-2-carboxamide] it was less than 50 nM; in that of `O=C(COc1ccc(Cl)c(F)c1)NC12CCC(NC(=O)c3ccn(-c4ccc(Cl)c(Cl)c4)n3)(CC1)[C@@H](O)C2` [Compound 1066, N-{(2S)-4-[2-(4-chloro-3-fluorophenoxy)acetamido]-2-hydroxybicyclo[2.2.2]octan-1-yl}-1-(3,4-dichlorophenyl)-1H-pyrazole-3-carboxamide], less than 50 nM; in that of `Cc1nc(C(=O)NC23CC(NC(=O)COc4ccc(Cl)c(F)c4)(C2)C3)n(C)n1` [Compound 1067, N-{3-[2-(4-chloro-3-fluorophenoxy)acetamido]bicyclo[1.1.1]pentan-1-yl}-1,3-dimethyl-1H-1,2,4-triazole-5-carboxamide], 50 to 250 nM.
Regarding `O=C(COc1ccc(Cl)c(F)c1)NC12CCC(NC(=O)c3n[nH]c(-c4ccc(Cl)cc4)n3)(CC1)C[C@@H]2O` [Compound 1068, N-{(3S)-4-[2-(4-chloro-3-fluorophenoxy)acetamido]-3-hydroxybicyclo[2.2.2]octan-1-yl}-5-(4-chlorophenyl)-1H-1,2,4-triazole-3-carboxamide], the EC50 was more than 2000 nM.
The value for `COc1ncc(OCC(=O)NC23CCC(NC(=O)c4cc(C(F)F)no4)(CC2)C[C@@H]3O)cn1` [Compound 1069, 3-(difluoromethyl)-N-[(3S)-3-hydroxy-4-{2-[(2-methoxypyrimidin-5-yl)oxy]acetamido}bicyclo[2.2.2]octan-1-yl]-1,2-oxazole-5-carboxamide] was 1000 to 2000 nM.
The value for `O=C(COc1cccc(F)c1)NC12CCC(NC(=O)c3cc(C(F)F)no3)(CC1)C[C@@H]2O` [Compound 1070, 3-(difluoromethyl)-N-{(3S)-4-[2-(3-fluorophenoxy)acetamido]-3-hydroxybicyclo[2.2.2]octan-1-yl}-1,2-oxazole-5-carboxamide] was 50 to 250 nM.
The value for `O=C(COc1ccccn1)NC12CCC(NC(=O)c3cc(C(F)F)no3)(CC1)C[C@@H]2O` [Compound 1071, 3-(difluoromethyl)-N-[(3S)-3-hydroxy-4-{2-[(pyridin-2-yl)oxy]acetamido}bicyclo[2.2.2]octan-1-yl]-1,2-oxazole-5-carboxamide] was more than 2000 nM.
`O=C(COc1cccc(Cl)c1)NC12CCC(NC(=O)c3cc(C(F)F)no3)(CC1)C[C@@H]2O` [Compound 1072, N-{(3S)-4-[2-(3-chlorophenoxy)acetamido]-3-hydroxybicyclo[2.2.2]octan-1-yl}-3-(difluoromethyl)-1,2-oxazole-5-carboxamide]: the EC50 was in the range of 50 to 250 nM.
On to `COc1ncc(C(=O)NC23CCC(NC(=O)COc4ccc(Cl)c(F)c4)(CC2)[C@@H](O)C3)cn1` [Compound 1073, N-{(3S)-4-[2-(4-chloro-3-fluorophenoxy)acetamido]-3-hydroxybicyclo[2.2.2]octan-1-yl}-2-methoxypyrimidine-5-carboxamide], for which the EC50 was in the range of 50 to 250 nM.
The value for `COc1ncc(C(=O)NC23CCC(NC(=O)COc4ccc(C(F)(F)F)c(F)c4)(CC2)[C@@H](O)C3)cn1` [Compound 1074, N-[(3S)-4-{2-[3-fluoro-4-(trifluoromethyl)phenoxy]acetamido}-3-hydroxybicyclo[2.2.2]octan-1-yl]-2-methoxypyrimidine-5-carboxamide] was 50 to 250 nM; that for `O=C(COc1ccc(Cl)c(F)c1)NC12CCC(NC(=O)c3nc4cc(F)c(F)cc4o3)(CC1)C[C@@H]2O` [Compound 1075, N-{(3S)-4-[2-(4-chloro-3-fluorophenoxy)acetamido]-3-hydroxybicyclo[2.2.2]octan-1-yl}-5,6-difluoro-1,3-benzoxazole-2-carboxamide] was less than 50 nM.
The value for `O=C(COc1ccc(C(F)(F)F)nc1)NC12CCC(NC(=O)c3cc4cc(Cl)ccc4o3)(CC1)C[C@@H]2O` [Compound 1076, 5-chloro-N-[(3S)-3-hydroxy-4-(2-{[6-(trifluoromethyl)pyridin-3-yl]oxy}acetamido)bicyclo[2.2.2]octan-1-yl]-1-benzofuran-2-carboxamide] was 50 to 250 nM; that for `O=C(COc1ccc(Cl)c(F)c1)NC12CCC(NC(=O)c3cc4cc(Cl)ccc4o3)(CC1)C[C@@H]2O` [Compound 1077, 5-chloro-N-{(3S)-4-[2-(4-chloro-3-fluorophenoxy)acetamido]-3-hydroxybicyclo[2.2.2]octan-1-yl}-1-benzofuran-2-carboxamide] was less than 50 nM.
In the case of `O=C(CCOc1ccc(Cl)c(F)c1)NC12CCC(NC(=O)c3cc(C(F)F)no3)(CC1)C[C@@H]2O` [Compound 1078, N-{(3S)-4-[3-(4-chloro-3-fluorophenoxy)propanamido]-3-hydroxybicyclo[2.2.2]octan-1-yl}-3-(difluoromethyl)-1,2-oxazole-5-carboxamide] it was 250 to 1000 nM; in that of `O=C(CCOc1ccc(Cl)c(F)c1)NC12CC(NC(=O)c3ccc(OC(F)(F)F)cn3)(C1)C2` [Compound 1079, N-{3-[3-(4-chloro-3-fluorophenoxy)propanamido]bicyclo[1.1.1]pentan-1-yl}-5-(trifluoromethoxy)pyridine-2-carboxamide], more than 2000 nM.
On to `O=C(COc1cc(F)c2cn[nH]c2c1)NC12CCC(NC(=O)c3cnc(C(F)F)cn3)(CC1)[C@@H](O)C2` [Compound 1080, 5-(difluoromethyl)-N-[(2S)-4-{2-[(4-fluoro-1H-indazol-6-yl)oxy]acetamido}-2-hydroxybicyclo[2.2.2]octan-1-yl]pyrazine-2-carboxamide], for which the concentration giving a half-maximal response (EC50) was in the range of 50 to 250 nM.
As for `Cc1onc(C(=O)NC23CC(NC(=O)COc4ccc(Cl)c(F)c4)(C2)C3)c1C(=O)Nc1ncc(C(F)(F)F)cc1Cl` [Compound 1081, N^3-{3-[2-(4-chloro-3-fluorophenoxy)acetamido]bicyclo[1.1.1]pentan-1-yl}-N^4-[3-chloro-5-(trifluoromethyl)pyridin-2-yl]-5-methyl-1,2-oxazole-3,4-dicarboxamide], the EC50 was more than 2000 nM.
As for `O=C(COc1ccc(Cl)c(F)c1)NC12CCC(NC(=O)c3ccc4c(n3)CCCC4)(CC1)[C@@H](O)C2` [Compound 1082, N-{(2S)-4-[2-(4-chloro-3-fluorophenoxy)acetamido]-2-hydroxybicyclo[2.2.2]octan-1-yl}-5,6,7,8-tetrahydroquinoline-2-carboxamide], the EC50 was less than 50 nM.
The value for `O=C(COc1ccc(OC(F)(F)F)cc1)NC12CCC(NC(=O)c3ccc(Cl)c(F)c3)(CC1)[C@@H](O)C2` [Compound 1083, 4-chloro-3-fluoro-N-[(2S)-2-hydroxy-4-{2-[4-(trifluoromethoxy)phenoxy]acetamido}bicyclo[2.2.2]octan-1-yl]benzamide] was more than 2000 nM.
The value for `O=C(COc1ccc(Cl)c(F)c1)NC12CC(NC(=O)c3cncc(CO)n3)(C1)C2` [Compound 1084, N-{3-[2-(4-chloro-3-fluorophenoxy)acetamido]bicyclo[1.1.1]pentan-1-yl}-6-(hydroxymethyl)pyrazine-2-carboxamide] was 1000 to 2000 nM; that for `O=C(COc1ccc(Cl)c(F)c1)NC12CC(NC(=O)c3cc(F)cc4c3OCOC4)(C1)C2` [Compound 1085, N-{3-[2-(4-chloro-3-fluorophenoxy)acetamido]bicyclo[1.1.1]pentan-1-yl}-6-fluoro-2H,4H-1,3-benzodioxine-8-carboxamide] was 1000 to 2000 nM.
For `O=C(COc1ccc(Cl)c(F)c1)NC12CCC(NC(=O)c3cccnc3CO)(CC1)C[C@@H]2O` [Compound 1086, N-{(3S)-4-[2-(4-chloro-3-fluorophenoxy)acetamido]-3-hydroxybicyclo[2.2.2]octan-1-yl}-2-(hydroxymethyl)pyridine-3-carboxamide], the EC50 was more than 2000 nM.
